Measurements reported in patent US20250296953A1, “3,4-THIAZOLO-STEROIDS AND METHODS OF MAKING AND USING THE SAME” (Arkansas State University - Jonesboro, priority 2018, published 2025).
Like-named read-outs stand apart in the source and are kept apart here.

Experiments:
[1] = tested on: 60 different human tumor cell lines; conditions: five dose; for CC50: read-out: LC50
SF-295 = assay: NCI 60 one dose screen; format: cell-based, human; conditions: one dose; CNS Cancer; SF-295
SR = assay: NCI 60 five dose screen; conditions: SR (Leukemia), five dose
NCI-H522 (NSCLC) = assay: NCI 60 one dose screen; format: cell-based, human; conditions: Non-small Cell Lung Cancer
SF-539 = assay: NCI 60 one dose screen; format: cell-based, human; conditions: one dose; CNS Cancer; SF-539
glioblastoma (SF-295) = assay: NCI 60 five dose screen; conditions: SF-295 (CNS Cancer), five dose
RPMI-8226 = assay: NCI 60 five dose screen; conditions: RPMI-8226 (Leukemia), five dose
[2] = NCI-H23 (Non-small Cell Lung Cancer)
[3] = NCI-H226 (Non-small Cell Lung Cancer)
[4] = NCI-H322M (Non-small Cell Lung Cancer)
[5] = NCI-H460 (Non-small Cell Lung Cancer)
[6] = NCI-H522 (Non-small Cell Lung Cancer)

For `C[C@]12CCc3nc(Nc4ccc(O)cc4)sc3C1=CC[C@@H]1[C@@H]2CC[C@]2(C)C(=O)CC[C@@H]12` [IIa.35], the GI50 [1, 2] was 3.96 µM, the TGI [1, 2] was >1.00E−4 and the GI50 [1, 3] was 2.86 µM. For the same compound, the TGI [1, 3] was 8.52E−6, the GI50 [1, 4] was 6.4 µM and the TGI [1, 4] was >1.00E−4. The GI50 [1, 5] was 3.01 µM, the TGI [1, 5] was 1.05E−5 and the GI50 [1, 6] was 1.42 µM. The TGI [1, 6] was 2.96E−6, the GI50 ([1]; NCI/ADR-RES (Ovarian Cancer)) was 3.27 µM and the TGI ([1]; NCI/ADR-RES (Ovarian Cancer)) was >1.00E−4. It also gave a GI50 ([1]; OVCAR-3 (Ovarian Cancer)) of 1.71 µM, a TGI ([1]; OVCAR-3 (Ovarian Cancer)) of 3.38E−6 and a GI50 ([1]; OVCAR-4 (Ovarian Cancer)) of 2.03 µM. For the same compound, the GI50 ([1]; OVCAR-5 (Ovarian Cancer)) was 3.91 µM, the TGI ([1]; OVCAR-5 (Ovarian Cancer)) was >1.00E−4 and the GI50 ([1]; OVCAR-8 (Ovarian Cancer)) was 3.22 µM. The TGI ([1]; OVCAR-8 (Ovarian Cancer)) was >1.00E−4, the GI50 ([1]; PC-3 (Prostate Cancer)) was 2.49 µM and the TGI ([1]; PC-3 (Prostate Cancer)) was 8.15E−6. For the same compound, the GI50 ([1]; RXF 393 (Renal Cancer)) was 1.78 µM, the TGI ([1]; RXF 393 (Renal Cancer)) was 4.14E−6 and the GI50 ([1]; SF-268 (CNS Cancer)) was 3.37 µM. For the same compound, the TGI ([1]; SF-268 (CNS Cancer)) was 4.00E−4, the GI50 ([1]; SK-MEL-2 (Melanoma)) was 6.98 µM and the TGI ([1]; SK-MEL-2 (Melanoma)) was >1.00E−4. It also gave a GI50 ([1]; SK-MEL-5 (Melanoma)) of 4.33 µM, a TGI ([1]; SK-MEL-5 (Melanoma)) of 3.19E−5 and a GI50 ([1]; SK-MEL-28 (Melanoma)) of 2.08 µM. The TGI ([1]; SK-MEL-28 (Melanoma)) was 4.75E−6, the GI50 ([1]; SK-OV-3 (Ovarian Cancer)) was 12.3 µM and the TGI ([1]; SK-OV-3 (Ovarian Cancer)) was >1.00E−4. The GI50 ([1]; SN12C (Renal Cancer)) was 2.91 µM, the TGI ([1]; SN12C (Renal Cancer)) was >1.00E−4 and the GI50 ([1]; SNB-19 (CNS Cancer)) was 10.9 µM. For the same compound, the TGI ([1]; SNB-19 (CNS Cancer)) was >1.00E−4, the GI50 ([1]; SNB-75 (CNS Cancer)) was 2.76 µM and the TGI ([1]; SNB-75 (CNS Cancer)) was >1.00E−4. The GI50 ([1]; SW-620 (Colon Cancer)) was 2.08 µM, the TGI ([1]; SW-620 (Colon Cancer)) was 4.73E−6 and the GI50 ([1]; T-47D (Breast Cancer)) was 1.95 µM. It also gave a TGI ([1]; T-47D (Breast Cancer)) of 5.03E−6, a GI50 ([1]; TK-10 (Renal Cancer)) of 2.01 µM and a TGI ([1]; TK-10 (Renal Cancer)) of 4.40E−6. It also gave a GI50 ([1]; U251 (CNS Cancer)) of 3.06 µM, a TGI ([1]; U251 (CNS Cancer)) of 2.19E−5 and a GI50 ([1]; UACC-62 (Melanoma)) of 1.76 µM. The TGI ([1]; UACC-62 (Melanoma)) was 4.02E−6, the GI50 ([1]; UACC-257 (Melanoma)) was 1.86 µM and the TGI ([1]; UACC-257 (Melanoma)) was 4.62E−6. The GI50 ([1]; UO-31 (Renal Cancer)) was 1.54 µM, the TGI ([1]; UO-31 (Renal Cancer)) was 2.90E−6 and the CC50 ([1]; A498 (Renal Cancer)) was > 100 µM. The CC50 ([1]; A549/ATCC (Non-small Cell Lung Cancer)) was > 100 µM, the CC50 ([1]; ACHN (Renal Cancer)) was 36.6 µM and the CC50 ([1]; BT-549 (Breast Cancer)) was > 100 µM. The CC50 ([1]; CCRF-CEM (Leukemia)) was > 100 µM, the CC50 ([1]; COLO 205 (Colon Cancer)) was 7.61 µM and the CC50 ([1]; EKVX (Non-small Cell Lung Cancer)) was > 100 µM. The CC50 ([1]; HCC-2998 (Colon Cancer)) was > 100 µM, the CC50 ([1]; HCT-15 (Colon Cancer)) was > 100 µM and the CC50 ([1]; HL-60(TB) (Leukemia)) was > 100 µM. For the same compound, the CC50 ([1]; HOP-62 (Non-small Cell Lung Cancer)) was > 100 µM, the CC50 ([1]; HOP-92 (Non-small Cell Lung Cancer)) was > 100 µM and the CC50 ([1]; HT29 (Colon Cancer)) was > 100 µM. The CC50 ([1]; IGROV1 (Ovarian Cancer)) was > 100 µM, the CC50 ([1]; K-562 (Leukemia)) was > 100 µM and the CC50 ([1]; M14 (Melanoma)) was > 100 µM. The CC50 ([1]; MALME-3M (Melanoma)) was 8.96 µM, the CC50 ([1]; MCF7 (Breast Cancer)) was > 100 µM and the CC50 ([1]; MDA-MB-231/ATCC (Breast Cancer)) was > 100 µM. The CC50 ([1]; MDA-MB-435 (Melanoma)) was > 100 µM, the CC50 ([1]; MDA-MB-468 (Breast Cancer)) was > 100 µM and the CC50 ([1]; MOLT-4 (Leukemia)) was > 100 µM. For the same compound, the CC50 [1, 2] was > 100 µM, the CC50 [1, 3] was > 100 µM and the CC50 [1, 5] was > 100 µM. The CC50 [1, 6] was 6.18 µM, the CC50 ([1]; NCI/ADR-RES (Ovarian Cancer)) was > 100 µM and the CC50 ([1]; OVCAR-3 (Ovarian Cancer)) was 6.7 µM. The CC50 ([1]; OVCAR-4 (Ovarian Cancer)) was > 100 µM, the CC50 ([1]; OVCAR-5 (Ovarian Cancer)) was > 100 µM and the CC50 ([1]; OVCAR-8 (Ovarian Cancer)) was > 100 µM. The CC50 ([1]; PC-3 (Prostate Cancer)) was > 100 µM, the CC50 ([1]; SF-268 (CNS Cancer)) was > 100 µM and the CC50 ([1]; SK-MEL-2 (Melanoma)) was > 100 µM. For the same compound, the CC50 ([1]; SK-MEL-5 (Melanoma)) was > 100 µM, the CC50 ([1]; SK-MEL-28 (Melanoma)) was > 100 µM and the CC50 ([1]; SK-OV-3 (Ovarian Cancer)) was > 100 µM. For the same compound, the CC50 ([1]; SN12C (Renal Cancer)) was > 100 µM, the CC50 ([1]; SNB-19 (CNS Cancer)) was > 100 µM and the CC50 ([1]; SNB-75 (CNS Cancer)) was > 100 µM. For the same compound, the CC50 ([1]; SW-620 (Colon Cancer)) was > 100 µM, the CC50 ([1]; T-47D (Breast Cancer)) was > 100 µM and the CC50 ([1]; TK-10 (Renal Cancer)) was 9.6 µM. The CC50 ([1]; U251 (CNS Cancer)) was > 100 µM, the CC50 ([1]; UACC-62 (Melanoma)) was 9.19 µM and the CC50 ([1]; UACC-257 (Melanoma)) was > 100 µM. For the same compound, the CC50 ([1]; UO-31 (Renal Cancer)) was 9.49 µM, the “Growth Percent” value (SF-295) was 52.47% and the GI50 (SR) was 2.72 µM. The TGI (SR) was >1.00E−4, the CC50 (SR; read-out: LC50) was > 100 µM and the “Growth Percent” value (NCI-H522 (NSCLC)) was −55.25%. For the same compound, the “Growth Percent” value (SF-539) was −3.84%, the GI50 (glioblastoma (SF-295)) was 5.26 µM and the TGI (glioblastoma (SF-295)) was 3.59E−5. For the same compound, the CC50 (glioblastoma (SF-295); read-out: LC50) was > 100 µM, the GI50 (RPMI-8226) was 2.35 µM and the TGI (RPMI-8226) was 7.07E−6. The CC50 (RPMI-8226; read-out: LC50) was > 100 µM.
